Measurements: ChEMBL document CHEMBL4507268 (2021)

Key:
Settings in all cases: Compound concentration 1.0 uM
[1] = target: T1, Homeodomain-interacting protein kinase 4 (Homo sapiens) (UniProt Q8NE63)
T1 sequence (whole entry): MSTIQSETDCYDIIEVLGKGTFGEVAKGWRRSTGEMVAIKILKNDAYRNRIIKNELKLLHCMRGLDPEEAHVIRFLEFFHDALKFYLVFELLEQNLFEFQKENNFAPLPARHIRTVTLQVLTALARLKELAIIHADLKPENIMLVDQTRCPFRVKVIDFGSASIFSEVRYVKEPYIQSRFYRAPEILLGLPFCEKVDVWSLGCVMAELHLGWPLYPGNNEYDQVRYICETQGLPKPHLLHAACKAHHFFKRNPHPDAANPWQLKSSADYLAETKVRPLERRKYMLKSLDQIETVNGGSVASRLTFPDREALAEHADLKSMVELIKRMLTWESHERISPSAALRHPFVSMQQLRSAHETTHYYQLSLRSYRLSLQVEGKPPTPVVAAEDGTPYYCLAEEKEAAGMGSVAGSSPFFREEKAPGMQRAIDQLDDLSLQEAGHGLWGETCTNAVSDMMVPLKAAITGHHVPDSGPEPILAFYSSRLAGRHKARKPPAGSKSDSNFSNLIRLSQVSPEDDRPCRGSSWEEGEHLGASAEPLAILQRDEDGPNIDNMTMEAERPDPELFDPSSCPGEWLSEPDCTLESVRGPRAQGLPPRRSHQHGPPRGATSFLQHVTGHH

[2] = target: Serine/threonine-protein kinase Nek7 (Homo sapiens) (UniProt Q8TDX7)
[3] = target: Tyrosine-protein kinase Fgr (Homo sapiens) (UniProt P09769)
[4] = target: Serine/threonine-protein kinase VRK1 (Homo sapiens) (UniProt Q99986)
[5] = target: Macrophage colony-stimulating factor 1 receptor (Homo sapiens) (UniProt P07333)
[6] = target: Serine/threonine-protein kinase PLK2 (Homo sapiens) (UniProt Q9NYY3)
[7] = target: T2, Activin receptor type-1 (Homo sapiens) (UniProt Q04771)
T2 sequence (whole entry): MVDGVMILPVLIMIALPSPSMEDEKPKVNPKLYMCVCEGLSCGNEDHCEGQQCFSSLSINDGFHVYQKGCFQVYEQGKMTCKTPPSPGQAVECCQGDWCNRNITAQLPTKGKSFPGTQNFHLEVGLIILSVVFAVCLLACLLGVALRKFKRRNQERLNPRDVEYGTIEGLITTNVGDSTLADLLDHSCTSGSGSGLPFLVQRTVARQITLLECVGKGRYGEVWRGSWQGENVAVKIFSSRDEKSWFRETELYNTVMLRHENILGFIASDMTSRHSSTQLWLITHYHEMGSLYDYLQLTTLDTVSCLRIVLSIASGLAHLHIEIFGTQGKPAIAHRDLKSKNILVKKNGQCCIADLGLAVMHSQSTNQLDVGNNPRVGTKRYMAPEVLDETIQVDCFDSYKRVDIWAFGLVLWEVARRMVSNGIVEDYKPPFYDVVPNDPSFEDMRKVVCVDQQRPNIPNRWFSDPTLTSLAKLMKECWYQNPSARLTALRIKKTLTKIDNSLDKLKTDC

[8] = target: Ephrin type-A receptor 5 (Homo sapiens) (UniProt P54756)
[9] = target: Serine/threonine-protein kinase N1 (Homo sapiens) (UniProt Q16512)
[10] = target: T3, Serine/threonine-protein kinase Sgk3 (Homo sapiens) (UniProt Q96BR1)
T3 sequence (whole entry): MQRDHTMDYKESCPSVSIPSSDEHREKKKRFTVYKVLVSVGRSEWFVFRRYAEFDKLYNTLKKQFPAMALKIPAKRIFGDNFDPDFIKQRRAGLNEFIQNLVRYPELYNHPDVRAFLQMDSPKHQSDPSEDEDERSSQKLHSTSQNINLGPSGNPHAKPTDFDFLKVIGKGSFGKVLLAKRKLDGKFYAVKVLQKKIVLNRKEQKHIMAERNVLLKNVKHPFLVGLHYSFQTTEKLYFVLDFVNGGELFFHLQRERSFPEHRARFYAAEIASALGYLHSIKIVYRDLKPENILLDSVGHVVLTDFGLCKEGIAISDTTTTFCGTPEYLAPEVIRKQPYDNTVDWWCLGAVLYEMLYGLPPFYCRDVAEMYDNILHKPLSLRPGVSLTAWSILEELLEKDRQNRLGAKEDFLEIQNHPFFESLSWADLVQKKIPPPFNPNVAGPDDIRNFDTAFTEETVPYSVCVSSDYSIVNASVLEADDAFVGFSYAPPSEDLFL

Measured: % residual kinase activity

Chain of Ephrin type-A receptor 5 (Homo sapiens) (P54756 whole entry): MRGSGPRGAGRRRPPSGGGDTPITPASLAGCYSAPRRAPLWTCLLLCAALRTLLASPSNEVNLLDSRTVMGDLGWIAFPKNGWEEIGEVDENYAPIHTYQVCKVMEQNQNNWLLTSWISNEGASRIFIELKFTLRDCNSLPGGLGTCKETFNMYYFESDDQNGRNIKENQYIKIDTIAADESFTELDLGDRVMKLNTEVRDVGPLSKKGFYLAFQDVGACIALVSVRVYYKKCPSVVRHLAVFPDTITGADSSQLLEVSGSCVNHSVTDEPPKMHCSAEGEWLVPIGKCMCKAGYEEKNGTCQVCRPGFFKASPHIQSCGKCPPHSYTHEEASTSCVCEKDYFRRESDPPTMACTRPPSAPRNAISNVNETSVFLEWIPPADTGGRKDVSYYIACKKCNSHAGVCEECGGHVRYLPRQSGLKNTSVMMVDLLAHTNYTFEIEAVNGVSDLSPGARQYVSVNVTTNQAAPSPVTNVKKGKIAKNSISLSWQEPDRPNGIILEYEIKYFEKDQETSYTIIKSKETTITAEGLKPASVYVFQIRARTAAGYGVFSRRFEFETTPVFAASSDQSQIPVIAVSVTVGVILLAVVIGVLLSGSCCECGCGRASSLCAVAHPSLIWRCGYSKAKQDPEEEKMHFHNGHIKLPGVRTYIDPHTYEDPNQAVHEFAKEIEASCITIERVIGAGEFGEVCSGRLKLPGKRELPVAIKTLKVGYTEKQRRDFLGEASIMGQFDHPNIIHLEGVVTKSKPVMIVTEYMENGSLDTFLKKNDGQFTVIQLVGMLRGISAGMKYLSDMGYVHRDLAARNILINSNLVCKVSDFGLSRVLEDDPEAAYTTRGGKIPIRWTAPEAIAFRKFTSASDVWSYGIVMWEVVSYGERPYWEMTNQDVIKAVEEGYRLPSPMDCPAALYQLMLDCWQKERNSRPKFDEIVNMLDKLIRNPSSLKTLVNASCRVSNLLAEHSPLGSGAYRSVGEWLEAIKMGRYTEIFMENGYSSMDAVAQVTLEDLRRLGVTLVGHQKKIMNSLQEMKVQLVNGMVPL
Chain of Macrophage colony-stimulating factor 1 receptor (Homo sapiens) (P07333 whole entry): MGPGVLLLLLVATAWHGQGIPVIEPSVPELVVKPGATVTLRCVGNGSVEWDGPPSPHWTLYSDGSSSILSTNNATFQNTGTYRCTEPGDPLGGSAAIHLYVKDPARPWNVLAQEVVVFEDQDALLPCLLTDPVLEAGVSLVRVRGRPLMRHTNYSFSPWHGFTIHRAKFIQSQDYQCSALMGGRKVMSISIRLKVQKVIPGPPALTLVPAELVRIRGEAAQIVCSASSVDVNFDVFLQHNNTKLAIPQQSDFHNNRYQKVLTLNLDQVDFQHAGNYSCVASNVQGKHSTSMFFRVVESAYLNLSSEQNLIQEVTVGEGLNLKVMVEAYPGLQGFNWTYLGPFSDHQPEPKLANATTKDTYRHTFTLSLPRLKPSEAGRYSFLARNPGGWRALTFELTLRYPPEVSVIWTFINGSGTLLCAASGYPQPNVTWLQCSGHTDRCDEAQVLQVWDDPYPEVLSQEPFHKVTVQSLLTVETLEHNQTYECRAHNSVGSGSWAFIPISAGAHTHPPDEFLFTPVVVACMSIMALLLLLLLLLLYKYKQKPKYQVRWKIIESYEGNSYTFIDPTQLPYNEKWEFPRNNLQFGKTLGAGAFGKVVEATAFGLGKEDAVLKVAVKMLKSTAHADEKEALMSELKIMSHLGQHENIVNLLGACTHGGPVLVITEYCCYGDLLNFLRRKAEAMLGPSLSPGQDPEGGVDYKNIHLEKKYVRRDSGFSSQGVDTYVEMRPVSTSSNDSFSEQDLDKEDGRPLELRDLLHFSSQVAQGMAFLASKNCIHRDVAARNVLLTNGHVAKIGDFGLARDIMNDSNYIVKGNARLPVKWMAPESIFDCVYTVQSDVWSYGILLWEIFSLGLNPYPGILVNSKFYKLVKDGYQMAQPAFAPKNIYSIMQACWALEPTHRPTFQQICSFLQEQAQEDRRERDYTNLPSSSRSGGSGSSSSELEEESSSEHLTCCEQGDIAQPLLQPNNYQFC
Chain of Serine/threonine-protein kinase VRK1 (Homo sapiens) (Q99986 whole entry): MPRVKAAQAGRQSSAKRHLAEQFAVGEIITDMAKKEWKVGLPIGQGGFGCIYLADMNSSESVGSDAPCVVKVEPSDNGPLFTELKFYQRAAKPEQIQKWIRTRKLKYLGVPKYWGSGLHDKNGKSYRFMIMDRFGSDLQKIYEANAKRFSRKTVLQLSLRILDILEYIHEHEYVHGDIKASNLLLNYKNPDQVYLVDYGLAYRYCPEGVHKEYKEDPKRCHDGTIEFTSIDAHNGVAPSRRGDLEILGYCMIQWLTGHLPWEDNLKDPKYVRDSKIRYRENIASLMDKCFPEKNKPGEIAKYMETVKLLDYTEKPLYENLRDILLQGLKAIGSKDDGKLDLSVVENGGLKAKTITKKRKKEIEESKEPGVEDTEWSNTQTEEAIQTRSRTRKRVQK
Chain of Serine/threonine-protein kinase N1 (Homo sapiens) (Q16512 2-942 limits assumed): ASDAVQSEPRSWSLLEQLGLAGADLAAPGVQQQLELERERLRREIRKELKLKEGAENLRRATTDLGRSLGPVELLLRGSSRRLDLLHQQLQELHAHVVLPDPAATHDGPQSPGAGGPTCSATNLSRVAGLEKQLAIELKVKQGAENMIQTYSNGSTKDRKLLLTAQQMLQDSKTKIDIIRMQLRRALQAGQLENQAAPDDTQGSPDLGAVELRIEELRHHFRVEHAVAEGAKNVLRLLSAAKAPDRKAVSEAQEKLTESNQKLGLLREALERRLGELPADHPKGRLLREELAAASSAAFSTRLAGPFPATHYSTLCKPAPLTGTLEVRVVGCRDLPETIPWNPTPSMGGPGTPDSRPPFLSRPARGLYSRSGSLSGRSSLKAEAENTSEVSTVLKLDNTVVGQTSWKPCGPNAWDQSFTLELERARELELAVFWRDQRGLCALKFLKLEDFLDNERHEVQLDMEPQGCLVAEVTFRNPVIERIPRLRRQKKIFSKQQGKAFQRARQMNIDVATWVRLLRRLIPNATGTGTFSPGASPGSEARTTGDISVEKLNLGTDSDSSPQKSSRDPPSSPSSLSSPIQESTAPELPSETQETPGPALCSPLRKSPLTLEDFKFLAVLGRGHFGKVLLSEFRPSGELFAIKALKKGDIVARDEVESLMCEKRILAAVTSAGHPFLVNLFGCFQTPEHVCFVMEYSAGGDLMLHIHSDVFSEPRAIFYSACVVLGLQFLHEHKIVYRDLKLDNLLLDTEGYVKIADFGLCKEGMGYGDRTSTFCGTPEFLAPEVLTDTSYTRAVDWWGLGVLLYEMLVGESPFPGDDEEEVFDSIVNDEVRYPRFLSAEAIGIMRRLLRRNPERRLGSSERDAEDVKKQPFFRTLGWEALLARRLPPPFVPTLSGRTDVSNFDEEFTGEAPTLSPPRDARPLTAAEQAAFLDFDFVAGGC
Chain of Serine/threonine-protein kinase Nek7 (Homo sapiens) (Q8TDX7 whole entry, looked up): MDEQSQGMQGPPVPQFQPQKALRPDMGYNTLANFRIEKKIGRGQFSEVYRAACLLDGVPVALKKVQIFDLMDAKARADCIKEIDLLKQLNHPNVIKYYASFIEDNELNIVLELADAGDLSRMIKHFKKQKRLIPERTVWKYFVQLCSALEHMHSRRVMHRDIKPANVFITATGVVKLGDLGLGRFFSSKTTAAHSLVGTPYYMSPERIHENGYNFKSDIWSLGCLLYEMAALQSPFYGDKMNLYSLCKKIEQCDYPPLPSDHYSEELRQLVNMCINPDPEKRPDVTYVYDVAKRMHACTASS
Chain of Tyrosine-protein kinase Fgr (Homo sapiens) (P09769 2-529 limits assumed): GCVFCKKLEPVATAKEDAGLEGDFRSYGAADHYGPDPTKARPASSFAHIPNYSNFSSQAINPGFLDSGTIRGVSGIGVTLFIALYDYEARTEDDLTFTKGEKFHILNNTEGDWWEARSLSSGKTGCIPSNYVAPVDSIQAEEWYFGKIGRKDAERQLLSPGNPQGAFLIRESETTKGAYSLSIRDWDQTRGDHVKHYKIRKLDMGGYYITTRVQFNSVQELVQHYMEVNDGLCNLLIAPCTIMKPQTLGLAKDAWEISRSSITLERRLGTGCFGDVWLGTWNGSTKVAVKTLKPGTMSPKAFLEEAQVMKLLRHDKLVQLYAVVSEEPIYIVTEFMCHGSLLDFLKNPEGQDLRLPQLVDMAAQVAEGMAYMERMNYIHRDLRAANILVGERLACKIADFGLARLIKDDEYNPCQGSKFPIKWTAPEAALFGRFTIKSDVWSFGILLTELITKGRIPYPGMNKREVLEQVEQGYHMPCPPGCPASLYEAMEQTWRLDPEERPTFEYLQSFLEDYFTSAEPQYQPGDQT
Chain of Serine/threonine-protein kinase PLK2 (Homo sapiens) (Q9NYY3 whole entry, looked up): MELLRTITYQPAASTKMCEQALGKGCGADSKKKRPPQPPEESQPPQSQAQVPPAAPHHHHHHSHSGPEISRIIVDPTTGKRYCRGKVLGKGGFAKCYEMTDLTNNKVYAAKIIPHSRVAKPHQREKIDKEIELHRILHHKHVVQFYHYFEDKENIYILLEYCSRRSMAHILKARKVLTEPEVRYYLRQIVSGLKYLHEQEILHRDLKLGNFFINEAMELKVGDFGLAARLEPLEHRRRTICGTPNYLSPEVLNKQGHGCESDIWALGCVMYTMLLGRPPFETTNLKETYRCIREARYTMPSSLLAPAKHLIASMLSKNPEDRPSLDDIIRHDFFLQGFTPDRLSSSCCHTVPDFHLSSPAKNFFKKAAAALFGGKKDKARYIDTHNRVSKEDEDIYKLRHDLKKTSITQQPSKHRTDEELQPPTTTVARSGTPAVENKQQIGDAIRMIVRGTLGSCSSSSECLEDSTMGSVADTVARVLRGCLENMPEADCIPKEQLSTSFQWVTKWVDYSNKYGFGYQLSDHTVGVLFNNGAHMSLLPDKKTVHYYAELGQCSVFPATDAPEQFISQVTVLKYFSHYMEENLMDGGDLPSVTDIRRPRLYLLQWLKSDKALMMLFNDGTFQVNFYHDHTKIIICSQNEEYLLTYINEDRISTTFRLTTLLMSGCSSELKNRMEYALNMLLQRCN

CN1CCN(c2cnc3c(C4CCN(C(=O)c5ccc(OC(F)(F)F)cc5N)CC4)ncnc3c2)CC1 [BAY-885]
inactive: [1] 94% | [2] 106% | [3] 98% | [4] 100% | [5] 118% | [6] 119% | [7] 98% | [8] 57% | [9] 114% | [10] 104%
